Assay: mn = molality of the nth substance listed, in mol/kg
Conditions: for electrical conductivity: 100 kPa, Liquid, CyberScan CON1500 Bench Conductivity Meter; for surface tension liquid-gas: 298.2 K, Ring tensiometer

CCCCCCCCCCCC[n+]1ccn(C)c1.[Cl-] [1-dodecyl-3-methylimidazolium chloride] + O
electrical conductivity [S/m]
Conditions	288.15 K	293.15 K	298.15 K	303.15 K
m1 = 0.001	0.00787	0.00877	0.00992	0.0109
m1 = 0.002	0.0149	0.0166	0.0187	0.0207
m1 = 0.003	0.0219	0.0245	0.0273	0.0304
m1 = 0.004	0.0289	0.0324	0.0367	0.0408
m1 = 0.005	0.0355	0.0401	0.0448	0.0503
m1 = 0.006	0.0433	0.0481	0.054	0.0598
m1 = 0.007	0.0491	0.0548	0.0617	0.0687
m1 = 0.008	0.0562	0.0637	0.071	0.0787
m1 = 0.009	0.0633	0.0711	0.0795	0.0885
m1 = 0.01	0.0688	0.0778	0.0871	0.0961
m1 = 0.011	0.0764	0.0861	0.0964	0.107
m1 = 0.012	0.0832	0.0934	0.105	0.117
m1 = 0.013	0.0886	0.0991	0.112	0.124
m1 = 0.014	0.095	0.106	0.118	0.132
m1 = 0.015	0.1	0.112	0.126	0.14
m1 = 0.016	0.105	0.117	0.131	0.145
m1 = 0.017	0.107	0.12	0.136	0.15
m1 = 0.018	0.111	0.125	0.14	0.155
m1 = 0.019	0.115	0.129	0.144	0.16
m1 = 0.02	0.117	0.132	0.146	0.165
m1 = 0.021	0.12	0.135	0.15	0.169
m1 = 0.022	0.122	0.137	0.154	0.173
m1 = 0.023	0.125	0.141	0.158	0.178
m1 = 0.024	0.128	0.144	0.162	0.181
m1 = 0.025	0.131	0.147	0.166	0.185

Conditions	surface tension liquid-gas [mN/m]
m1 = 0.001	69.37
m1 = 0.002	63.46
m1 = 0.004	58.36
m1 = 0.006	53.85
m1 = 0.01	47.71
m1 = 0.014	43.05
m1 = 0.018	38.43
m1 = 0.02	38.26
m1 = 0.025	38.38
m1 = 0.03	38.61
m1 = 0.04	38.35
m1 = 0.05	38.55

CCCCCCCCCCCCn1cc[n+](C)c1.[I-] [1-dodecyl-3-methylimidazolium iodide] + O
electrical conductivity [S/m]
Conditions	288.15 K	293.15 K	298.15 K	303.15 K
m1 = 0.0005	0.00423	0.00497	0.00565	0.00618
m1 = 0.001	0.00828	0.00961	0.0108	0.0118
m1 = 0.002	0.0151	0.017	0.0191	0.0211
m1 = 0.003	0.0227	0.0255	0.0287	0.0316
m1 = 0.004	0.0292	0.0332	0.0373	0.0413
m1 = 0.005	0.0334	0.0388	0.0452	0.0506
m1 = 0.006	0.036	0.0418	0.0483	0.0552
m1 = 0.007	0.0368	0.0432	0.05	0.0579
m1 = 0.008	0.0378	0.0444	0.0516	0.0595
m1 = 0.009	0.0393	0.0459	0.0532	0.0614
m1 = 0.01	0.04	0.047	0.0543	0.0634
m1 = 0.011	0.0412	0.0485	0.0558	0.0653
m1 = 0.012	0.042	0.0502	0.0576	0.0672
m1 = 0.013	0.0425	0.0508	0.0589	0.0687
m1 = 0.014	0.0441	0.0519	0.06	0.0699
m1 = 0.015	0.0448	0.0535	0.0616	0.0712
m1 = 0.016	0.0458	0.0542	0.0631	0.0728
m1 = 0.017	0.0471	0.0556	0.0645	0.0739
m1 = 0.018	0.0483	0.0568	0.066	0.0758
m1 = 0.019	0.0489	0.0574	0.0667	0.0774
m1 = 0.02	0.0496	0.0582	0.0677	0.0784

Conditions	surface tension liquid-gas [mN/m]
m1 = 0.0001	69.81
m1 = 0.0005	65.15
m1 = 0.001	56.7
m1 = 0.002	46.92
m1 = 0.003	38.08
m1 = 0.004	33.49
m1 = 0.005	31.45
m1 = 0.006	31.48
m1 = 0.007	31.39
m1 = 0.009	31.5
m1 = 0.012	31.6
m1 = 0.016	31.57
m1 = 0.02	31.66

Reference: the NIST ThermoML archive (doi:10.1021/je301147k)
